Results taken from patent US20240400553A1, “AMINE BASED MATRIPTASE 2 INHIBITORS AND USES THEREOF” (Disc Medicine, Inc., priority 2023, published 2024).

Target: T1, Human Recombinant Matriptase 2 (Homo sapiens, UniProt Q8IU80)
T1 construct: made in house
T1 sequence (Q8IU80 1-811): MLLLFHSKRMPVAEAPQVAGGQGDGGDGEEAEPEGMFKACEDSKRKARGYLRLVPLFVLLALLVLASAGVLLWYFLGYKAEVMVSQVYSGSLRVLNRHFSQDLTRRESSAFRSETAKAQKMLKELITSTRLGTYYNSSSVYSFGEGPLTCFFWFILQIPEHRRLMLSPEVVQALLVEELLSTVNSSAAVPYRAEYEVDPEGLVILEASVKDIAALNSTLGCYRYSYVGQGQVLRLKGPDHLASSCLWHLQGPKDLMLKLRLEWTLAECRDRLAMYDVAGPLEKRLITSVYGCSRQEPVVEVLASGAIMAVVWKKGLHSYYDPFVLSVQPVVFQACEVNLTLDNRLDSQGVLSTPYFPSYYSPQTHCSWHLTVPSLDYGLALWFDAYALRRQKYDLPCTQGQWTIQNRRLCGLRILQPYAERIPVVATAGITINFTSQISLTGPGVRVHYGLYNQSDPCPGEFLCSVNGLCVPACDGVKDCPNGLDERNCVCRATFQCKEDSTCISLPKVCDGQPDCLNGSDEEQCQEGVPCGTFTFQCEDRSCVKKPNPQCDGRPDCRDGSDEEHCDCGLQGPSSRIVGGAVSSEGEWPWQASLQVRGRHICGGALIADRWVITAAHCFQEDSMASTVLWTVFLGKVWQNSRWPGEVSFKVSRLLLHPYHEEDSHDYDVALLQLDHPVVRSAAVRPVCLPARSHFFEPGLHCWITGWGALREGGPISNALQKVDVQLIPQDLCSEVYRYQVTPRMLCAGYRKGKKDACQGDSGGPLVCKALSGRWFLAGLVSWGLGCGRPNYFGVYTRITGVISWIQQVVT
Test: Matriptase 2 inhibition, fluorescence based assay (Method I)
Format: biochemical
Details: Table A; Ki of Matriptase-2 given as class symbols; read-out: Mat-2 Ki
How it was run: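 Fluorogenic readout (Ex 360/Em 480 nm) taken 60 min after adding 62 μM Boc-Gln-Ala-Arg-AMC, following 30-min enzyme–compound preincubation at 25 °C. Conditions: 3.5 nM in-house enzyme, pH 7.5 Tris/NaCl/gelatin buffer, 1% DMSO; percent inhibition versus concentration fitted by variable-slope sigmoidal regression.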

Row | SMILES | Ki [nM]
1 | CC1(O)CCN(C(=O)Nc2cc(Cn3c(C(=O)O)cc4ccc(CN)nc43)c3ccccc3c2)CC1 [Compound 300] | 500 to 3000
2 | C[C@@H]1C[C@H](C)CN(C(=O)Nc2cc(Cn3c(C(=O)O)cc4ccc(CN)nc43)c3ccccc3c2)C1 [Compound 301, 6-(aminomethyl)-1-[(3-{[(3R,5S)-3,5-dimeth-ylpiperidine-1-carbonyl]-amino}naphthalen-1-yl)-methyl]-1H-pyrrolo[2,3-b]pyridine-2-carboxylic acid] | 500 to 3000
3 | C[C@@H]1CN(C(=O)Nc2cc(Cn3c(C(=O)O)cc4ccc(CN)nc43)c3ccccc3c2)C[C@H](C)N1 [Compound 304, 6-(aminomethyl)-1-[(3-{[(3R,5S)-3,5-dimeth-ylpiperazine-1-carbon-yl]amino}naphthalen-1-yl)methyl]-1H-pyrrolo-[2,3-b]pyridine-2-car-boxylic acid] | 500 to 3000
4 | C[C@H]1CN(C(=O)Nc2cc(Cn3c(C(=O)O)cc4ccc(CN)nc43)c3ccccc3c2)CCN1 [Compound 305] | 500 to 3000
5 | NCc1ccc2cc(C(=O)O)n(Cc3cc(NC(=O)N4CC5CC(C5)C4)cc4ccccc34)c2n1 [Compound 308, 6-(aminomethyl)-1-{[3-({3-azabicyclo[3.1.1]-heptane-3-carbonyl}-amino)naphthalen-1-yl]-methyl}-1H-pyrrolo[2,3-b]pyridine-2-carboxylic acid] | 500 to 3000
6 | CN1CCC[C@@H]1COC(=O)Nc1cc(Cn2c(C(=O)O)cc3ccc(CN)nc32)c2ccccc2c1 [Compound 336, 6-(aminomethyl)-1-({3-[({[(2R)-1-methylpyr-rolidin-2-yl]methoxy}-carbonyl)amino]naph-thalen-1-yl}methyl)-1H-pyrrolo[2,3-b]pyr-idine-2-carboxylic acid] | 100 to 500
7 | CC(C)N(CCOC(=O)Nc1cc(Cn2c(C(=O)O)cc3ccc(CN)nc32)c2ccccc2c1)C(C)C [Compound 338, 6-(aminomethyl)-1-({3-[({2-[bis(propan-2-yl)-amino]ethoxy}carbonyl)-amino]naphthalen-1-yl}-methyl)-1H-pyrrolo[2,3-b]pyridine-2-carboxylic acid] | 500 to 3000
8 | CN1CCC(c2nnc(-c3cc4ccc(CN)nc4n3Cc3cc(NS(=O)(=O)Cc4ccccc4)cc4ccccc34)o2)CC1 [Compound 345, N-(4-((6-(aminomethyl)-2-(5-(1-methylpiperidin-4-yl)-1,3,4-oxadiazol-2-yl)-1H-pyrrolo[2,3-b]pyridin-1-yl)methyl)naphthalen-2-yl)-1-phenylmethanesulfonamide] | ≤ 100
9 | CN1CCC(Cc2nnc(-c3cc4ccc(CN)nc4n3Cc3cc(NS(=O)(=O)Cc4ccccc4)cc4ccccc34)o2)CC1 [Compound 346, N-(4-{[6-(aminomethyl)-2-{5-[(1-methylpiperidin-4-yl)methyl]-1,3,4-oxa-diazol-2-yl}-1H-pyrrolo-[2,3-b]pyridin-1-yl]meth-yl}naphthalen-2-yl)-1-phenylmethanesulfon-amide] | 100 to 500
10 | CN(C)Cc1nnc(-c2cc3ccc(CN)nc3n2Cc2cc(NS(=O)(=O)Cc3ccccc3)cc3ccccc23)o1 [Compound 347, N-(4-{[6-(aminomethyl)-2-{5-[(dimethylamino)-methyl]-1,3,4-oxadiazol-2-yl}-1H-pyrrolo[2,3-b]pyridin-1-yl]methyl}-naphthalen-2-yl)-1-phen-ylmethanesulfonamide] | 100 to 500
11 | NCc1ccc2cc(-c3nnc(N)o3)n(Cc3cc(NS(=O)(=O)Cc4ccccc4)cc4ccccc34)c2n1 [Compound 348, N-(4-{[2-(5-amino-1,3,4-oxadiazol-2-yl)-6-(amino-methyl)-1H-pyrrolo[2,3-b]pyridin-1-yl]methyl}-naphthalen-2-yl)-1-phen-ylmethanesulfonamide] | ≤ 100
12 | CN(C)CC(=O)Nc1nnc(-c2cc3ccc(CN)nc3n2Cc2cc(NS(=O)(=O)Cc3ccccc3)cc3ccccc23)o1 [Compound 349] | ≤ 100
13 | NCc1ccc2cc(-c3ccn[nH]3)n(Cc3cc(NS(=O)(=O)Cc4ccccc4)cc4ccccc34)c2n1 [Compound 351] | ≤ 100
14 | NCc1ccc2cc(-c3ncn[nH]3)n(Cc3cc(NS(=O)(=O)Cc4ccccc4)cc4ccccc34)c2n1 [Compound 352] | ≤ 100
15 | NCc1ccc2cc(-c3noc(=O)[nH]3)n(Cc3cc(NS(=O)(=O)Cc4ccccc4)cc4ccccc34)c2n1 [Compound 353, N-(4-((6-(aminomethyl)-2-(5-hydroxy-1,2,4-oxadiazol-3-yl)-1H-pyrrolo[2,3-b]pyridin-1-yl)methyl)naphthalen-2-yl)-1-phenylmethanesulfonamide] | 100 to 500
16 | CCOC(=O)c1cc2ccc(CNC(=O)c3ccccc3COC(C)=O)nc2n1Cc1cc(NS(=O)(=O)Cc2ccccc2)cc2ccccc12 [Compound 358, ethyl 6-[({2-[(acetyl-oxy)methyl]phenyl}-formamido)methyl]-1-{[3-(phenylmethane-sulfonamido)naphthalen-1-yl]methyl}-1H-pyr-rolo[2,3-b]pyridine-2-carboxylate] | 500 to 3000
17 | Cc1oc(=O)oc1COC(=O)NCc1ccc2cc(C(=O)O)n(Cc3cc(NS(=O)(=O)Cc4ccccc4)cc4ccccc34)c2n1 [Compound 359, 6-(((((5-methyl-2-oxo-1,3-dioxol-4-yl)methoxy)carbonyl)amino)methyl)-1-((3-((phenylmethyl)sulfonamido)naphthalen-1-yl)methyl)-1H-pyrrolo[2,3-b]pyridine-2-carboxylic acid] | 100 to 500
18 | NCc1ccc2cc(CO)n(Cc3cc(NS(=O)(=O)CC4CCNCC4)cc4ccccc34)c2n1 [Compound 362] | 100 to 500
19 | NCc1ccc2cc(CO)n(Cc3cc(NS(=O)(=O)Cc4ccccc4)cc4ccccc34)c2n1 [Compound 365, N-(4-((6-(aminomethyl)-2-(hydroxymethyl)-1H-pyrrolo[2,3-b]pyridin-1-yl)methyl)naphthalen-2-yl)-1-phenylmethanesulfonamide] | 500 to 3000

Second part, the compound after the results:

Row | Ki [nM] | SMILES
20 | 500 to 3000 | NCc1ccc2cc(C(=O)O)n(Cc3cc(NC(=O)N4CC5CCCC5C4)cc4ccccc34)c2n1 (centres unmarked) [Compound 297, 6-(aminomethyl)-1-{[3-({octahydrocyclopenta-[c]pyrrole-2-carbonyl}-amino)naphthalen-1-yl]-methyl}-1H-pyrrolo[2,3-b]pyridine-2-carboxylic acid]
21 | 500 to 3000 | NCc1ccc2cc(C(=O)O)n(Cc3cc(NC(=O)N4CCC(C(F)(F)F)CC4)cc4ccccc34)c2n1 [Compound 298, 6-(aminomethyl)-1-[(3-{[4-(trifluoromethyl)-piperidine-1-carbonyl]-amino}naphthalen-1-yl)-methyl]-1H-pyrrolo[2,3-b]pyridine-2-carboxylic acid]
22 | 500 to 3000 | CC(C)[C@H]1CCCN1C(=O)Nc1cc(Cn2c(C(=O)O)cc3ccc(CN)nc32)c2ccccc2c1 [Compound 299, 6-(aminomethyl)-1-[(3-{[(2R)-2-(propan-2-yl)-pyrrolidine-1-carbonyl]-amino}naphthalen-1-yl)-methyl]-1H-pyrrolo[2,3-b]pyridine-2-carboxylic acid]
23 | 500 to 3000 | COC[C@H]1CCCN1C(=O)Nc1cc(Cn2c(C(=O)O)cc3ccc(CN)nc32)c2ccccc2c1 [Compound 307]
24 | 100 to 500 | CN1CCC[C@H]1COC(=O)Nc1cc(Cn2c(C(=O)O)cc3ccc(CN)nc32)c2ccccc2c1 [Compound 334, 6-(aminomethyl)-1-({3-[({[(2S)-1-methylpyr-rolidin-2-yl]methoxy}-carbonyl)amino]naph-thalen-1-yl}methyl)-1H-pyrrolo[2,3-b]pyr-idine-2-carboxylic acid]
25 | 500 to 3000 | CN(C)C(=O)N1CC[C@H](OC(=O)Nc2cc(Cn3c(C(=O)O)cc4ccc(CN)nc43)c3ccccc3c2)C1 [Compound 341]
26 | 100 to 500 | COCCN1CCN(C(=O)Nc2cc(Cn3c(C(N)=O)cc4ccc(CN)nc43)c3ccccc3c2)CC1 [Compound 344, 6-(aminomethyl)-1-((3-(4-(2-methoxyethyl)piperazine-1-carboxamido)naphthalen-1-yl)methyl)-1H-pyrrolo[2,3-b]pyridine-2-carboxamide]
27 | 100 to 500 | NCc1ccc2cc(-c3cnn[nH]3)n(Cc3cc(NS(=O)(=O)Cc4ccccc4)cc4ccccc34)c2n1 [Compound 350, N-(4-((6-(aminomethyl)-2-(1H-1,2,3-triazol-5-yl)-1H-pyrrolo[2,3-b]pyridin-1-yl)methyl)naphthalen-2-yl)-1-phenylmethanesulfonamide]
28 | 100 to 500 | NCc1ccc2cc(C(=O)O)n(Cc3cc(NS(=O)(=O)Cc4ccccc4)cc4cccc(O)c34)c2n1 [Compound 360, 6-(aminomethyl)-1-((8-hydroxy-3-((phenylmethyl)sulfonamido)naphthalen-1-yl)methyl)-1H-pyrrolo[2,3-b]pyridine-2-carboxylic acid]
29 | 100 to 500 | COc1ccc2c(Cn3c(C(=O)O)cc4ccc(CN)nc43)cc(NS(=O)(=O)Cc3ccccc3)cc2c1 [Compound 361]
